Patent US6274715A, “Tricyclic erythromycin derivatives” (priority 1997, dated 2001)
Values after ≈ are worked out from the molar mass of the structure shown.

Experiments:
Format in all cases: cell-based
[1] = system: STAPHYLOCOCCUS AUREUS ATCC 6538P; assay: In vitro antibacterial activity, MIC, BHI agar dilution; conditions: S. aureus ATCC 6538P, 35-37° C., 20 to 24 hours, unit assumed
[2] = system: STAPHYLOCOCCUS AUREUS A5177; assay: as above; conditions: S. aureus A5177, unit assumed
[3] = system: STAPHYLOCOCCUS AUREUS A-5278; assay: as above; conditions: S. aureus A-5278, unit assumed
[4] = system: STAPHYLOCOCCUS AUREUS CMX 642A; assay: as above; conditions: S. aureus CMX 642A, unit assumed
[5] = system: STAPHYLOCOCCUS AUREUS NCTC10649M; assay: as above; conditions: S. aureus NCTC10649M, unit assumed
[6] = system: STAPHYLOCOCCUS AUREUS CMX 553; assay: as above; conditions: S. aureus CMX 553, unit assumed
[7] = system: STAPHYLOCOCCUS AUREUS 1775; assay: as above; conditions: S. aureus 1775, unit assumed
[8] = system: STAPHYLOCOCCUS EPIDERMIDIS 3519; conditions: S. epidermidis 3519; BHI agar; unit assumed
EN[…] ATCC 8043 = assay: In vitro antibacterial activity, MIC, BHI agar dilution; conditions: E. faecium ATCC 8043, unit assumed
How it was run: (§1)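 BHI agar dilution: twelve plates with successive compound dilutions, inoculated by replicator with 1:100 culture dilutions (1:10 for slow growers such as Micrococcus and Streptococcus), 20 to 24 hours at 35-37° C. MIC was the lowest concentration giving no growth, slight haze or sparse isolated colonies versus drug-free control; erythromycin A as class reference.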

M[…] ATCC 4698 = assay: as above; conditions: M. luteus ATCC 4698, unit assumed
How it was run: as §1

M[…] ATCC 9341 = assay: as above; conditions: M. luteus ATCC 9341, unit assumed
How it was run: as §1

STR[…] 508 = assay: as above; conditions: S. agalactiae CMX 508, unit assumed
How it was run: as §1

[9] = system: STREPTOCOCCUS BOVIS A-5169; assay: as above; conditions: S. bovis A-5169, unit assumed
[10] = system: STREPTOCOCCUS PYOGENES EES61; assay: as above; conditions: S. pyogenes EES61, unit assumed
[11] = system: STREPTOCOCCUS PYOGENES 930; assay: as above; conditions: S. pyogenes 930, unit assumed
[12] = system: STREPTOCOCCUS PYOGENES PIU 2548; assay: as above; conditions: S. pyogenes PIU 2548, unit assumed
ESCHERICHIA COLI JUHL = conditions: E. coli JUHL; BHI agar; unit assumed
ESCHERICHIA COLI SS = assay: In vitro antibacterial activity, MIC, BHI agar dilution; conditions: E. coli SS, unit assumed
ESCHERICHIA COLI DC-2 = assay: as above; conditions: E. coli DC-2, unit assumed
ESCHERICHIA COLI H560 = assay: as above; conditions: E. coli H560, unit assumed
ESCHERICHIA COLI KNK 437 = conditions: E. coli KNK 437; BHI agar; unit assumed
[13] = system: ENTEROBACTER AEROGENES ATCC 13048; assay: In vitro antibacterial activity, MIC, BHI agar dilution; conditions: E. aerogenes ATCC 13048, unit assumed
[14] = system: KLEBSIELLA PNEUMONIAE ATCC 8045; assay: as above; conditions: K. pneumoniae ATCC 8045, unit assumed
[15] = system: PROVIDENCIA STUARTII CMX 640; conditions: P. stuartii CMX 640; BHI agar; unit assumed
[16] = system: PSEUDOMONAS AERUGINOSA BMH10; assay: In vitro antibacterial activity, MIC, BHI agar dilution; conditions: P. aeruginosa BMH10, unit assumed
[17] = system: PSEUDOMONAS AERUGINOSA 5007; assay: as above; conditions: P. aeruginosa 5007, unit assumed
[18] = system: PSEUDOMONAS AERUGINOSA K799/WT; assay: as above; conditions: P. aeruginosa K799/WT, unit assumed
[19] = system: PSEUDOMONAS AERUGINOSA K799/61; assay: as above; conditions: P. aeruginosa K799/61, unit assumed
PSEUDOMONAS CEPACIA 296I = assay: as above; conditions: P. cepacia 296I, unit assumed
[20] = system: PSEUDOMONAS AERUGINOSA DPHD-5263; assay: as above; conditions: P. aeruginosa DPHD-5263, unit assumed
[21] = system: PSEUDOMONAS AERUGINOSA DPHD-2862; assay: as above; conditions: P. aeruginosa DPHD-2862, unit assumed
CANDIDA ALBICANS CCH 442 = assay: as above; conditions: C. albicans CCH 442, unit assumed
[22] = system: MYCOBACTERIUM SMEGMATIS ATCC 114; assay: as above; conditions: M. smegmatis ATCC 114, unit assumed
H. Influenza Dill AMP R = assay: In vitro antibacterial activity against H. Influenza Dill AMP R, MIC; conditions: separate assay, unit assumed
Procedure: Representative compounds of the present invention were assayed in vitro for antibacterial activity as follows: Twelve petri dishes containing successive aqueous dilutions of the test compound mixed with 10 mL of sterilized Brain Heart Infusion (BHI) agar (Difco 0418-01-5) were prepared. Each plate was inoculated with 1:100 (or 1:10 for slow-growing strains, such as Micrococcus and Streptococcus) dilutions of up to 32 different microorganisms, using a Steers replicator block. The inoculated plates were incubated at 35-37° C. for 20 to 24 hours. In addition, a control plate, using BHI agar containing no test compound, was prepared and incubated at the beginning and end of each test.
After incubation, each plate was visually inspected. The minimum inhibitory concentration (MIC) was defmed as the lowest concentration of drug yielding no growth, a slight haze, or sparsely isolated colonies on the inoculum spot as compared to the growth control.
In a separate assay representative compounds of the invention were assayed in vitro for antibacterial activity against the H. Influenza Dill AMP R strain, according to the protocol described above.

## CC[C@H]1OC(=O)[C@H](C)C(=O)[C@H](C)[C@@H](O[C@@H]2O[C@H](C)C[C@H](N(C)C)[C@H]2O)[C@](C)(OC)C[C@@H](C)C2=NC3CN(CCc4cccc([N+](=O)[O-])c4)CC3N3C(=O)O[C@@]1(C)[C@H]3[C@H]2C (stereo partly shown) [Example 120]
[1]
  MIC: 0.2 mg/L (≈ 0.242 µM)
[2]
  MIC: 0.2 mg/L (≈ 0.242 µM)
[3]
  MIC: > 100 mg/L
[4]
  MIC: 0.2 mg/L (≈ 0.242 µM)
[5]
  MIC: 0.2 mg/L (≈ 0.242 µM)
[6]
  MIC: 0.2 mg/L (≈ 0.242 µM)
[7]
  MIC: > 100 mg/L
[8]
  MIC: 0.39 mg/L (≈ 0.471 µM)
EN[…] ATCC 8043
  MIC: 0.05 mg/L (≈ 0.0604 µM)
M[…] ATCC 4698
  MIC: 0.2 mg/L (≈ 0.242 µM)
M[…] ATCC 9341
  MIC: 0.02 mg/L (≈ 0.0242 µM)
STR[…] 508
  MIC: 0.01 mg/L (≈ 0.0121 µM)
[9]
  MIC: 0.01 mg/L (≈ 0.0121 µM)
[10]
  MIC: 0.01 mg/L (≈ 0.0121 µM)
[11]
  MIC: > 100 mg/L
[12]
  MIC: 0.39 mg/L (≈ 0.471 µM)
ESCHERICHIA COLI JUHL
  MIC: 50 mg/L (≈ 60.4 µM)
ESCHERICHIA COLI SS
  MIC: 0.39 mg/L (≈ 0.471 µM)
ESCHERICHIA COLI DC-2
  MIC: 50 mg/L (≈ 60.4 µM)
ESCHERICHIA COLI H560
  MIC: 50 mg/L (≈ 60.4 µM)
ESCHERICHIA COLI KNK 437
  MIC: > 100 mg/L
[13]
  MIC: > 100 mg/L
[14]
  MIC: > 100 mg/L
[15]
  MIC: > 100 mg/L
[16]
  MIC: > 100 mg/L
[17]
  MIC: > 100 mg/L
[18]
  MIC: > 100 mg/L
[19]
  MIC: 0.78 mg/L (≈ 0.942 µM)
PSEUDOMONAS CEPACIA 296I
  MIC: 100 mg/L (≈ 121 µM)
[20]
  MIC: > 100 mg/L
[21]
  MIC: > 100 mg/L
CANDIDA ALBICANS CCH 442
  MIC: > 100 mg/L
[22]
  MIC: 0.78 mg/L (≈ 0.942 µM)
H. Influenza Dill AMP R
  MIC: 4 mg/L (≈ 4.83 µM)
